US9426996B2, “Use of benzoxaboroles as volatile antimicrobial agents on meats, plants, or plant parts” (AgroFresh Inc., priority 2013, dated 2016)

Legend:
[1] = test system: Botrytis cinerea; experiment: in vivo volatile bioassay using strawberry
Description: In order to assess the in vivo activity of volatile antimicrobial compounds, a volatile bioassay is developed using strawberry. Two fruit are placed inside a 240 mL jar, with the calyx facing downwards. […] The acetone is permitted to evaporate for 5 minutes. The jars are then capped with the lids containing the fungicide, and placed for 5 days at 21° C. After storage, fruit are evaluated for incidence and severity of disease and appearance of phytotoxicity.

[2] = test system: Pectobacterium carotovorum; experiment: in vitro volatile assay, minimum bactericidal concentration (Example 11); format: cell-based; conditions: headspace concentration; 23° C. for 48 hours
Description: (§1) 12-Well (6.5 mL volume per well) microtiter plates are used for the in vitro inhibition assay for volatile antimicrobial Compound A (FIG. 1) against numerous bacterial pathogens. A 3-mL volume of Nutrient agar is added to each well and allowed to dry before introducing the pathogen. Escherichia coli, Pectobacterium carotovorum, Xanthomonas axonopodis and Salmonella enterica cell suspensions are adjusted to an optical density of 0.2 to 0.35, and further diluted 1/10, and 15 μL is pipetted to the center of each well and tilted to distribute uniformly. A Whatman #1 filter paper (CAT 1001-0155) is placed on the underside of a polyethylene PCR plate sealing film. […] The films with the treated disks are then applied over the inoculated plates and sealed. Plates are inverted, and incubated at 23° C. for 48 hours. After the incubation period, the bacteria colonies are dislodged in sterile water containing tween 80 (0.001%) and the optical density (OD; 600 nm) is determined Results are summarized in Table 10, where the headspace concentration required to control at least 80% of bacterial growth is reported.

[3] = test system: Xanthomonas axonopodis; experiment: as above; format: cell-based; conditions: headspace concentration; 23° C. for 48 hours
Description: as §1

[4] = test system: Botrytis cinerea; experiment: in vivo strawberry assay, release from cellulose paper and Tyvek fabric; conditions: strawberries
Description: An in vivo assay is used to evaluate the ability of Compound A to volatilize from different materials and control fungal pathogens. Eight strawberries are placed in a clamshell with stem end facing downwards. […] The clamshells are then placed in a 10.8-cup SnapWare airtight container (Model #109842). Compound A is dissolved in acetone and then evenly sprayed onto cellulose paper and Tyvek® fabric at a rate of 200 milligrams per square meter (mg/m^2). The acetone is allowed to evaporate. Likewise Compound A is dissolved in propylene glycol and evenly sprayed onto cellulose paper and Tyvek® fabric. No evaporation is attempted in this case.
Pieces of material are cut to the appropriate dimensions to deliver a final headspace concentration of 0.4, 2, or 10 mg/L. The containers are close, and placed for three days at 21° C. After treatment, fruit are stored for an additional two days at 21° C. and then evaluated for incidence (%) and severity (0 to 4) of disease, with the results summarized in Table 23.

[5] = test system: Alternaria alternata; experiment: combination treatment with 1-MCP on broccoli; format: in vivo; parameters: scale not given here; conditions: 21° C.
Description: To evaluate a combination treatment of Compound A with 1-methylcyclopropene (1-MCP), an in vivo experiment is performed on broccoli.
Broccoli flowers are inoculated with 1×10^6 spores/mL of Alternaria alternata and then placed in a 117 L Rubbermaid storage box (Cat #2244) with two small fans placed in opposite ends of the container. A 500 ppb v/v 1-MCP treatment is applied (AgroFresh, Springhouse, Pa.) for 24 hours at 1° C. After completion of the 1-MCP treatment, broccoli florets are removed and placed in a 10.8-cup SnapWare airtight container (Model #109842). Compound A powder is applied in a dose dependent manner to achieve a final headspace concentration of 2 or 0.4 mg/L with a sublimation device (copper tube heated to 200° C. with fan flow at 0.5 L/min), with the end of the tube penetrating through a ½ inch side port in the container that is sealed immediately after the application. The florets are incubated for five days at 10° C. or three days at 21° C., then evaluated for an additional five days at 21° C. for disease incidence and severity.

[6] = test system: Escherichia coli; experiment: in vivo volatile bioassay on fresh beef
Description: (§2) In order to assess the in vivo activity of volatile antimicrobial Compound A, a volatile bioassay is developed to evaluate the control of Escherichia coli and Salmonella enterica on fresh beef. The beef is washed to remove any natural inoculum by rinsing in warm water for 2 minutes. Two strips, single layer, are placed in a sterile 10.8-cup SnapWare airtight container (Model #109842).
(§3) Each strip is inoculated on the surface by placing 20 μL of either E. coli or S. enterica cell suspensions that are adjusted to an optical density of 0.35 (600 nm), and further diluted 1/10. For determination of efficacy, Compound A powder is introduced into the container with a sublimation device (copper tube heated to 200° C. with fan flow at 0.5 liters per minute (L/min)) at a rate required to achieve a final headspace concentration of 100 mg/L. The containers and their contents are then incubated for 2 days at 21° C. After treatment, the beef is washed, and the wash is collected, serially diluted, plated on nutrient agar, and then incubated for an additional 24 hours at 37° C. Bacterial colonies are counted and expressed as colony forming units (CFU/mL), with the log reduction calculated relative to the control.

[7] = test system: Salmonella enterica; experiment: in vivo volatile bioassay on fresh beef; conditions: S. enterica from beef; 100 mg/L headspace; 2 days at 21° C.
Description: as §2, §3

Structure (SMILES): OB1OCc2cc(F)ccc21 [Compound A]
- Percent (%) Incidence of Botrytis cinerea on Strawberry (in vivo) ([1]; 0.005 mg/disk, 5 days at 21° C.): 75%
- Percent (%) Incidence of Botrytis cinerea on Strawberry (in vivo) ([1]; 0.01 mg/disk, 5 days at 21° C.): 100%
- Percent (%) Incidence of Botrytis cinerea on Strawberry (in vivo) ([1]; 0.02 mg/disk, 5 days at 21° C.): 50%
- Percent (%) Incidence of Botrytis cinerea on Strawberry (in vivo) ([1]; 0.04 mg/disk, 5 days at 21° C.): 75%
- Percent (%) Incidence of Botrytis cinerea on Strawberry (in vivo) ([1]; 0.08 mg/disk, 5 days at 21° C.): 0%
- Percent (%) Incidence of Botrytis cinerea on Strawberry (in vivo) ([1]; 0.16 mg/disk, 5 days at 21° C.): 0%
- Percent (%) Incidence of Botrytis cinerea on Strawberry (in vivo) ([1]; 0.32 mg/disk, 5 days at 21° C.): 0%
- Percent (%) Incidence of Botrytis cinerea on Strawberry (in vivo) ([1]; 0.64 mg/disk, 5 days at 21° C.): 0%
- Percent (%) Incidence of Botrytis cinerea on Strawberry (in vivo) ([1]; 1.25 mg/disk, 5 days at 21° C.): 0%
- Percent (%) Incidence of Botrytis cinerea on Strawberry (in vivo) ([1]; 2.5 mg/disk, 5 days at 21° C.): 0%
- lowest rate with 100% control of Botrytis cinerea ([1]; strawberry, 5 days at 21° C.): 0.16 mg/disk
- appearance of phytotoxicity ([1]; strawberry, any of the rates evaluated (2.5 to 0.005 mg/disk)): no evidence of phytotoxicity
- Rate (mg/L) offering at least 80% control, P. carotovorum [2]: 2.2 mg/L
- Rate (mg/L) offering at least 80% control, X. axonopodis [3]: 4.5 mg/L
- Incidence (%) ([4]; 0.4 mg/L, Cellulose Paper): 37.5%
- Severity (0-4) ([4]; 0.4 mg/L, Cellulose Paper): 0.8
- Incidence (%) ([4]; 0.4 mg/L, Tyvek): 31.3%
- Severity (0-4) ([4]; 0.4 mg/L, Tyvek): 0.5
- Incidence (%) ([4]; 2 mg/L, Cellulose Paper): 37.5%
- Severity (0-4) ([4]; 2 mg/L, Cellulose Paper): 0.7
- Incidence (%) ([4]; 2 mg/L, Tyvek): 6.3%
- Severity (0-4) ([4]; 2 mg/L, Tyvek): 0.1
- Severity (0-4) ([4]; 10 mg/L, Cellulose Paper): 0.2
- Incidence (%) ([4]; 10 mg/L, Tyvek): 6.3%
- Severity (0-4) ([4]; 10 mg/L, Tyvek): 0.3
- Color Score ([5]; 0.4 mg/L): 1.32
- Severity ([5]; 0.4 mg/L): 0.29
- Color Score ([5]; 2 mg/L): 1.89
- Severity ([5]; 2 mg/L): 0.07
- Log CFU/mL ([6]; E. coli from beef, 100 mg/L headspace, 2 days at 21° C.): 5.09 Log CFU/mL
- Log reduction ([6]; E. coli from beef, 100 mg/L, relative to the control): 3.17 log
- reduction of E. coli in percent ([6]; beef, 100 mg/L, relative to the control): > 99.9%
- Log CFU/mL [7]: 4.95 Log CFU/mL
